Source: patent US9062071B2, “Substituted piperidines as HDM2 inhibitors” (Merck Sharp & Dohme Corp, priority 2011, dated 2015)

Molecular target: HDM2 protein (Homo sapiens, UniProt Q00987)
Assay: fluorescence polarization screening assay (FP IC50)
Assay type: binding
Protocol: The compounds were evaluated to determine activity at the HDM2 protein by known methods such as the fluorescence polarization screening assay that measures the inhibitory concentration that achieves 50% of maximal activity (FP IC50) and the dissociation constant for inhibitor binding (FP Ki). [Zhang et al., J. Analytical Biochemistry 331: 138-146 (2004)].

HDM2 protein, sequence (Q00987 whole entry): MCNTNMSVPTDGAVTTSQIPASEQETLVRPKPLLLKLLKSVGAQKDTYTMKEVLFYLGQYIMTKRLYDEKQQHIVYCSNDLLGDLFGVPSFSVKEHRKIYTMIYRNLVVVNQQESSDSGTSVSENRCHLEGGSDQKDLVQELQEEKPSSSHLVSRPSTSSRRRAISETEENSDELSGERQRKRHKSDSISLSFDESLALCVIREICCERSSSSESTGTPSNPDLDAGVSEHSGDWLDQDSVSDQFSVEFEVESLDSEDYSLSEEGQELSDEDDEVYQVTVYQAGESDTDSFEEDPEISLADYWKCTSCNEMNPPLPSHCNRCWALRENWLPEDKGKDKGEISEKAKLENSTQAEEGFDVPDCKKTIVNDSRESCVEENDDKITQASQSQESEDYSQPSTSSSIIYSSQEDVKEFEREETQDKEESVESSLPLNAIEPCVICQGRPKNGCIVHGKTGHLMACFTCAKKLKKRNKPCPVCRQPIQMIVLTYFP

| Compound | IC50 (class symbols) | IC50 (numeric value) |
| --- | --- | --- |
| CCC[C@H]1N(C(=O)c2ncccc2C(F)(F)F)CCC[C@@]1(Oc1csc(C(F)(F)F)c1)C(=O)N1CCc2cc(Cl)ccc2C1CCC(=O)NCc1nn[nH]n1 (stereo partly drawn) [Compound A67, 3-(6-chloro-2-{[(2R,3S)-2-propyl-1-{[3-(trifluoromethyl)pyridin-2-yl]carbonyl}-3-{[5-(trifluoromethyl)thiophen-3-yl]oxy}piperidin-3-yl]carbonyl}-1,2,3,4-tetrahydroisoquinolin-1-yl)-N-(2H-tetrazol-5-ylmethyl)propanamide] | 1 to 100 nM | – |
| CCC[C@H]1N(C(=O)c2ncccc2C(F)(F)F)CCC[C@@]1(Oc1csc(C(F)(F)F)c1)C(=O)N1CCc2cc(Cl)ccc2C1C(=O)N1CCN(CCO)CC1 (stereo partly drawn) [Compound A92, 2-{4-[(6-chloro-2-{[(2R,3S)-2-propyl-1-{[3-(trifluoromethyl)pyridin-2-yl]carbonyl}-3-{[5-(trifluoromethyl)thiophen-3-yl]oxy}piperidin-3-yl]carbonyl}-1,2,3,4-tetrahydroisoquinolin-1-yl)carbonyl]piperazin-1-yl}ethanol] | 101 to 20000 nM | – |
| CCC[C@H]1N(C(=O)c2ncccc2C(F)(F)F)CCC[C@@]1(Oc1csc(C(F)(F)F)c1)C(=O)N1CCc2cc(Cl)ccc2C1C#N (stereo partly drawn) [Compound A78, 6-chloro-2-{[(2R,3S)-2-propyl-1-{[3-(trifluoromethyl)pyridin-2-yl]carbonyl}-3-{[5-(trifluoromethyl)thiophen-3-yl]oxy}piperidin-3-yl]carbonyl}-1,2,3,4-tetrahydroisoquinoline-1-carbonitrile] | 101 to 20000 nM | – |
| CCC[C@H]1N(C(=O)c2ncccc2C(F)(F)F)CCC[C@@]1(Oc1csc(C(F)(F)F)c1)C(=O)N1CCc2sc(Cl)cc2C1CCCN1CCOCC1 (stereo partly drawn) [Compound A32, 2-chloro-4-(3-morpholin-4-ylpropyl)-5-{[(2R,3S)-2-propyl-1-{[3-(trifluoromethyl)pyridin-2-yl]carbonyl}-3-{[5-(trifluoromethyl)thiophen-3-yl]oxy}piperidin-3-yl]carbonyl}-4,5,6,7-tetrahydrothieno[3,2-c]pyridine] | 101 to 20000 nM | – |
| CCC[C@H]1N(C(=O)c2ncccc2C(F)(F)F)CCC[C@@]1(Oc1csc(C(F)(F)F)c1)C(=O)N1CCc2cc(-c3ccsc3)ccc2C1 [Compound A66, 2-{[(2R,3S)-2-propyl-1-{[3-(trifluoromethyl)pyridin-2-yl]carbonyl}-3-{[5-(trifluoromethyl)thiophen-3-yl]oxy}piperidin-3-yl]carbonyl}-6-thiophen-3-yl-1,2,3,4-tetrahydroisoquinoline] | 101 to 20000 nM | – |
| CCC[C@H]1N(C(=O)c2ncccc2C(F)(F)F)CCC[C@@]1(Oc1csc(C(F)(F)F)c1)C(=O)N1Cc2ccc(F)cc2C[C@H]1CN1CCC(O)CC1 [Compound A162, 1-{[(3S)-6-fluoro-2-{[(2R,3S)-2-propyl-1-{[3-(trifluoromethyl)pyridin-2-yl]carbonyl}-3-{[5-(trifluoromethyl)thiophen-3-yl]oxy}piperidin-3-yl]carbonyl}-1,2,3,4-tetrahydroisoquinolin-3-yl]methyl}piperidin-4-ol] | 101 to 20000 nM | – |
| COCCN(CCOC)CC[C@H]1N(C(=O)c2cnccc2C(F)(F)F)CCC[C@@]1(Oc1csc(C(F)(F)F)c1)C(=O)N1CCc2ccc(Cl)cc2C1 [Compound A1, 2-[(2R,3S)-3-[(7-chloro-3,4-dihydroisoquinblin-2(1H)-yl)carbonyl]-1-{[4-(trifluoromethyl)byridin-3-yl]carbonyl}-3-{[5-(trifluoromethyl)thiophen-3-yl]oxy}piperidin-2-yl]-N,N-bis(2-methoxyethyl)ethanamine] | – | 472000 nM |
| COCC1c2ccc(Cl)cc2CCN1C(=O)[C@]1(Oc2csc(C(F)(F)F)c2)CCCN(C(=O)c2ncccc2C(F)(F)F)[C@@H]1CCN1CCC(CCO)CC1 (stereo partly drawn) [Compound A20, 2-(1-{2-[(2R,3S)-3-{[6-chloro-1-(methoxymethyl)-3,4-dihydroisoquinolin-2(1H)-yl]carbonyl}-1-{[3-(trifluoromethyl)pyridin-2-yl]carbonyl}-3-{[5-(trifluoromethyl)thiophen-3-yl]oxy}piperidin-2-yl]ethyl}piperidin-4-yl)ethanol] | 1 to 100 nM | – |
| CCC[C@H]1N(C(=O)c2ncccc2C(F)(F)F)CCC[C@@]1(Oc1csc(C(F)(F)F)c1)C(=O)N1CCc2sccc2C1 [Compound A8, 5-{[(2R,3S)-2-propyl-1-{[3-(trifluoromethyl)pyridin-2-yl]carbonyl}-3-{[5-(trifluoromethyl)thiophen-3-yl]oxy}piperidin-3-yl]carbonyl}-4,5,6,7-tetrahydrothieno[3,2-c]pyridine] | 101 to 20000 nM | – |
| CCC[C@H]1N(C(=O)c2ncccc2C(F)(F)F)CCC[C@@]1(Oc1csc(C(F)(F)F)c1)C(=O)N1Cc2sc(Cl)cc2CC1C(=O)O (stereo partly drawn) [Compound A172, 2-chloro-6-{[(2R,3S)-2-propyl-1-{[3-(trifluoromethyl)pyridin-2-yl]carbonyl}-3-{[5-(trifluoromethyl)thiophen-3-yl]oxy}piperidin-3-yl]carbonyl}-4,5,6,7-tetrahydrothieno[2,3-c]pyridine-5-carboxylic acid] | 1 to 100 nM | – |

Now from value to compound:

| IC50 (class symbols) | IC50 (numeric value) | Compound |
| --- | --- | --- |
| 1 to 100 nM | – | CCC[C@H]1N(C(=O)c2ncccc2C(F)(F)F)CCC[C@@]1(Oc1csc(C(F)(F)F)c1)C(=O)N1Cc2ccc(Br)cc2C[C@@H]1C(=O)O [Compound A134, (3R)-6-bromo-2-{[(2R,3S)-2-propyl-1-{[3-(trifluoromethyl)pyridin-2-yl]carbonyl}-3-{[5-(trifluoromethyl)thiophen-3-yl]oxy}piperidin-3-yl]carbonyl}-1,2,3,4-tetrahydroisoquinoline-3-carboxylic acid] |
| 1 to 100 nM | – | CCC[C@H]1N(C(=O)c2ncccc2C(F)(F)F)CCC[C@@]1(Oc1csc(C(F)(F)F)c1)C(=O)N1CCc2cc(Cl)ccc2C1CCCC(=O)O (stereo partly drawn) [Compound A73, 4-(6-chloro-2-{[(2R,3S)-2-propyl-1-{[3-(trifluoromethyl)pyridin-2-yl]carbonyl}-3-{[5-(trifluoromethyl)thiophen-3-yl]oxy}piperidin-3-yl]carbonyl}-1,2,3,4-tetrahydroisoquinolin-1-yl)butanoic acid] |
| 1 to 100 nM | – | CCC[C@H]1N(C(=O)c2ncccc2C(F)(F)F)CCC[C@@]1(Oc1csc(C(F)(F)F)c1)C(=O)N1Cc2ccc(Cl)cc2C[C@@H]1C(=O)N1CCC(O)CC1 [Compound A168, 1-{[(3R)-6-chloro-2-{[(2R,3S)-2-propyl-1-{[3-(trifluoromethyl)pyridin-2-yl]carbonyl}-3-{[5-(trifluoromethyl)thiophen-3-yl]oxy}piperidin-3-yl]carbonyl}-1,2,3,4-tetrahydroisoquinolin-3-yl]carbonyl}piperidin-4-ol] |
| 1 to 100 nM | – | CCC[C@H]1N(C(=O)c2ncccc2C(F)(F)F)CCC[C@@]1(Oc1csc(C(F)(F)F)c1)C(=O)N1Cc2ccc(Cl)cc2C[C@@H]1CCC(=O)NS(C)(=O)=O [Compound A148, 3-[(3S)-6-chloro-2-{[(2R,3S)-2-propyl-1-{[3-(trifluoromethyl)pyridin-2-yl]carbonyl}-3-{[5-(trifluoromethyl)thiophen-3-yl]oxy}piperidin-3-yl]carbonyl}-1,2,3,4-tetrahydroisoquinolin-3-yl]-N-(methylsulfonyl) propanamide] |
| 1 to 100 nM | – | CCC[C@H]1N(C(=O)c2ncccc2C(F)(F)F)CCC[C@@]1(Oc1csc(C(F)(F)F)c1)C(=O)N1Cc2ccc(Cl)cc2C[C@@H]1C[C@H](O)C(=O)O [Compound A164, (2S)-3-[(3R)-6-chloro-2-{[(2R,3S)-2-propyl-1-{[3-(trifluoromethyl)pyridin-2-yl]carbonyl}-3-{[5-(trifluoromethyl)thiophen-3-yl]oxy}piperidin-3-yl]carbonyl}-1,2,3,4-tetrahydroisoquinolin-3-yl]-2-hydroxypropanoic acid] |
| 1 to 100 nM | – | CCC[C@H]1N(C(=O)c2ncccc2C(F)(F)F)CCC[C@@]1(Oc1csc(C(F)(F)F)c1)C(=O)N1Cc2ccc(Cl)cc2C[C@@H]1CN(C)C(=O)CC [Compound A152, N-{[(3R)-6-chloro-2-{[(2R,3S)-2-propyl-1-{[3-(trifluoromethyl)pyridin-2-yl]carbonyl}-3-{[5-(trifluoromethyl)thiophen-3-yl]oxy}piperidin-3-yl]carbonyl}-1,2,3,4-tetrahydroisoquinolin-3-yl]methyl}-N-methylpropanamide] |
| 1 to 100 nM | – | CCC[C@H]1N(C(=O)c2ncccc2C(F)(F)F)CCC[C@@]1(Oc1csc(C(F)(F)F)c1)C(=O)N1Cc2ccc(F)cc2C[C@@H]1C(=O)NCCO [Compound A150, (3R)-6-fluoro-N-(2-hydroxyethyl)-2-{[(2R,3S)-2-propyl-1-{[3-(trifluoromethyl)pyridin-2-yl]carbonyl}-3-{[5-(trifluoromethyl)thiophen-3-yl]oxy}piperidin-3-yl]carbonyl}-1,2,3,4-tetrahydroisoquinoline-3-carboxamide] |
| 101 to 20000 nM | – | CCC[C@H]1N(C(=O)c2ncccc2C(F)(F)F)CCC[C@@]1(Oc1csc(C(F)(F)F)c1)C(=O)N1Cc2ccc(F)cc2C[C@H]1CN(C)C(=O)[C@@H](C)O [Compound A158, (2R)-N-{[(3S)-6-fluoro-2-{[(2R,3S)-2-propyl-1-{[3-(trifluoromethyl)pyridin-2-yl]carbonyl}-3-{[5-(trifluoromethyl)thiophen-3-yl]oxy}piperidin-3-yl]carbonyl}-1,2,3,4-tetrahydroisoquinolin-3-yl]methyl}-2-hydroxy-N-methylpropanamide] |
| 1 to 100 nM | – | CCC[C@H]1N(C(=O)c2ncccc2C(F)(F)F)CCC[C@@]1(Oc1csc(C(F)(F)F)c1)C(=O)N1Cc2ccc(F)cc2C[C@H]1C(=O)O [Compound A125, (3S)-6-fluoro-2-{[(2R,3S)-2-propyl-1-{[3-(trifluoromethyl)pyridin-2-yl]carbonyl}-3-{[5-(trifluoromethyl)thiophen-3-yl]oxy}piperidin-3-yl]carbonyl}-1,2,3,4-tetrahydroisoquinoline-3-carboxylic acid] |
| 1 to 100 nM | – | CCC[C@H]1N(C(=O)c2ncccc2C(F)(F)F)CCC[C@@]1(Oc1csc(C(F)(F)F)c1)C(=O)N1Cc2ccc(F)cc2C[C@@H]1CC(=O)O [Compound A144, [(3R)-6-fluoro-2-{[(2R,3S)-2-propyl-1-{[3-(trifluoromethyl)pyridin-2-yl]carbonyl}-3-{[5-(trifluoromethyl)thiophen-3-yl]oxy}piperidin-3-yl]carbonyl}-1,2,3,4-tetrahydroisoquinolin-3-yl]acetic acid] |
